Here are results for 33 compounds from the Kinase Knowledgebase extract (Sharma et al. 2016).

The target in test [1] is EGFR (human) (UniProt P00533). To be noted: a431.
Another test concerns the target EGFR (Hamster) (UniProt P00533).
The target in the next test is MAPK14 (UniProt Q16539). The test is described as follows: Enzyme Assay.
For test [2], the target named is EGFR (human) (UniProt P00533).
A further test addresses EGFR (mouse) (UniProt P00533).
A further test addresses PIK3CG;PIK3CA (human) (UniProt P48736). The test is described as follows: Antiproliferation of PC3-MM2 Cells. To be noted: pc-3.
The next test addresses PIK3CA (human) (UniProt P42336). The test is described as follows: Inhibition of PIK3CA Kinase Activity.
The target of test [3] is PIK3CG (human) (UniProt P48736). The test is described as follows: Inhibition of PIK3CG Kinase Activity.
Test [4] concerns the target PIK3CD (Human) (UniProt O00329). The test is described as follows: Inhibition of PIK3CD Kinase Activity.
For test [5], the target named is PIK3CB (Human) (UniProt P42338). The test is described as follows: Inhibition of PIK3CB Kinase Activity.
Test [6] has as its target CDK2 (human) (UniProt P24941). Put plainly: Enzyme Assay.
Test [7] concerns the target PIK3CB (Human) (UniProt P42338). The test is described as follows: Enzyme Assay.
Test [8] concerns the target PIK3CD (Human) (UniProt O00329). The test is described as follows: Enzyme Assay.
For test [9], the target named is PIK3CG (human) (UniProt P48736). The test is described as follows: Enzyme Assay.
The target in test [10] is PIK3CB (Human) (UniProt P42338). The test is described as follows: Cell-Based Assay.
The target of test [11] is EGFR (human) (UniProt P00533). The source holds these as a separate data set.
The target of test [12] is CDK2 (human) (UniProt P24941). Put plainly: Enzyme Assay. This is another data set of the same source.

Values joined by “and” are separate entries in the source; they are usually repeats but may differ in a detail not shown here. Equal entries are not always repeated.

Chain of PIK3CD (Human) (O00329 whole entry, looked up): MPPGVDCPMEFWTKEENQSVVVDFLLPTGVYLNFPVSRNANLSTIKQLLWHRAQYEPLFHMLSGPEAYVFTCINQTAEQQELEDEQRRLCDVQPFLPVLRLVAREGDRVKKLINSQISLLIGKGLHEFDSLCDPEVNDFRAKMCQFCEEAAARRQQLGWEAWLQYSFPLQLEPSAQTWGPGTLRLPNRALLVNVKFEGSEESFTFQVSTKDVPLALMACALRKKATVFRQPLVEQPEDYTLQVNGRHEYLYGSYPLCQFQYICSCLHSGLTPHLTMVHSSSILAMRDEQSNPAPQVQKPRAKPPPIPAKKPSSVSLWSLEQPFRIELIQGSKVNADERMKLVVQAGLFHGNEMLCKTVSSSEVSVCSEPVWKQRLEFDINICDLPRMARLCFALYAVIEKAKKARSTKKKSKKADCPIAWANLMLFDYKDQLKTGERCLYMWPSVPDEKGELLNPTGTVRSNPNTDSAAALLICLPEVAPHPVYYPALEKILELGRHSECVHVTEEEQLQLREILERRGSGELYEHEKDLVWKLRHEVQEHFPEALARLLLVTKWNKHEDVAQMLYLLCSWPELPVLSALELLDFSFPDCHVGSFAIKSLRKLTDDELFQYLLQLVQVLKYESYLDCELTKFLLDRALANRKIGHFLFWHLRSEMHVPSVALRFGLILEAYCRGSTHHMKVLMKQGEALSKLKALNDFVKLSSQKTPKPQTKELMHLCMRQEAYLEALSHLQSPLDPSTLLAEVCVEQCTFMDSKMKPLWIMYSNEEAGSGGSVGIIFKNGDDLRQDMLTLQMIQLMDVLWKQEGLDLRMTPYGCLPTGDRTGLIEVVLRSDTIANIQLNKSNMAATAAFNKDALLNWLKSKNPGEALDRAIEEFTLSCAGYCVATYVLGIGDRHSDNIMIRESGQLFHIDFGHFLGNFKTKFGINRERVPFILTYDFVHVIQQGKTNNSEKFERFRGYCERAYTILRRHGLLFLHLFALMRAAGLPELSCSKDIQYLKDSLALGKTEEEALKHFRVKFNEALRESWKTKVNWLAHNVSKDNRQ
Chain of EGFR (human) (P00533 whole entry, looked up): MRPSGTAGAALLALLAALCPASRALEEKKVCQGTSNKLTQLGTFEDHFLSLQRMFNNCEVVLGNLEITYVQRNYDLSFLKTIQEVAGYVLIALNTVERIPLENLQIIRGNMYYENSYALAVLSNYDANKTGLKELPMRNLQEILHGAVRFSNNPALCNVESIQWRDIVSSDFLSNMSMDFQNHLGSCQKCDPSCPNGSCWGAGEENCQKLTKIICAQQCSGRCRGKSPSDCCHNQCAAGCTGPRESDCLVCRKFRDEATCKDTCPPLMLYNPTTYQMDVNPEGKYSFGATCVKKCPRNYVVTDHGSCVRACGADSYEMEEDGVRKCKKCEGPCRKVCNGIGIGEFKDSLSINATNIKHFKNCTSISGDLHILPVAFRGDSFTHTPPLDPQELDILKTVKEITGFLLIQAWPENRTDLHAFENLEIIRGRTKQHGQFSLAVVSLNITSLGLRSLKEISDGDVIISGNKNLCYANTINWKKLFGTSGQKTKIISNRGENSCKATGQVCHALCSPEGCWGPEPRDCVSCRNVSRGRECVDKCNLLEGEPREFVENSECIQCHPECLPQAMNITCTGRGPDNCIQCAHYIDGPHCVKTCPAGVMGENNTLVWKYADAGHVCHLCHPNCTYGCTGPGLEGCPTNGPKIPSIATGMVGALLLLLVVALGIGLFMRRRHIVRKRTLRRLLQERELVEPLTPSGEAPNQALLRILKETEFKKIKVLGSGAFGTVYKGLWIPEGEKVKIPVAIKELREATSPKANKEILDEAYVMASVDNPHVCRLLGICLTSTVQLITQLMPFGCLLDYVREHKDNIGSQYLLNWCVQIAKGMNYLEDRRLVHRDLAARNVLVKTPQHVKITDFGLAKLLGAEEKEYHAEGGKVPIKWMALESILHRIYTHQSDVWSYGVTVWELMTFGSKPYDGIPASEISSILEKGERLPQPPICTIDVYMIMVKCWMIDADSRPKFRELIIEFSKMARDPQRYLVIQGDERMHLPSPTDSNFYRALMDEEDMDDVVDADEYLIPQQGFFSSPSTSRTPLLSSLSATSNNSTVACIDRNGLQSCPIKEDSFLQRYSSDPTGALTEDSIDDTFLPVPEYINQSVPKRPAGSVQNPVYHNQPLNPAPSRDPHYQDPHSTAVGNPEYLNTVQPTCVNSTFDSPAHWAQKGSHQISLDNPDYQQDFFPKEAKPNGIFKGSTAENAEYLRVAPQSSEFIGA
Chain of MAPK14 (Q16539 whole entry, looked up): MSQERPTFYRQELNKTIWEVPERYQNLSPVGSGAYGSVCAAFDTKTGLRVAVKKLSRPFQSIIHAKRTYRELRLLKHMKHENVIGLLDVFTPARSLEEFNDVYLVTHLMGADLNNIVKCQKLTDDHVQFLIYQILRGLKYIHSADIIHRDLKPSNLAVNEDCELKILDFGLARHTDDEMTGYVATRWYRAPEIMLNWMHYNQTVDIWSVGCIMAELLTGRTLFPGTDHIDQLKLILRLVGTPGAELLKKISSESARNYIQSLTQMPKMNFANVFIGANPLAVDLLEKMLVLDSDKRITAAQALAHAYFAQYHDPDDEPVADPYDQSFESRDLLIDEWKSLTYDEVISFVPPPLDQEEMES
Chain of PIK3CG;PIK3CA (human) (P48736 whole entry, looked up): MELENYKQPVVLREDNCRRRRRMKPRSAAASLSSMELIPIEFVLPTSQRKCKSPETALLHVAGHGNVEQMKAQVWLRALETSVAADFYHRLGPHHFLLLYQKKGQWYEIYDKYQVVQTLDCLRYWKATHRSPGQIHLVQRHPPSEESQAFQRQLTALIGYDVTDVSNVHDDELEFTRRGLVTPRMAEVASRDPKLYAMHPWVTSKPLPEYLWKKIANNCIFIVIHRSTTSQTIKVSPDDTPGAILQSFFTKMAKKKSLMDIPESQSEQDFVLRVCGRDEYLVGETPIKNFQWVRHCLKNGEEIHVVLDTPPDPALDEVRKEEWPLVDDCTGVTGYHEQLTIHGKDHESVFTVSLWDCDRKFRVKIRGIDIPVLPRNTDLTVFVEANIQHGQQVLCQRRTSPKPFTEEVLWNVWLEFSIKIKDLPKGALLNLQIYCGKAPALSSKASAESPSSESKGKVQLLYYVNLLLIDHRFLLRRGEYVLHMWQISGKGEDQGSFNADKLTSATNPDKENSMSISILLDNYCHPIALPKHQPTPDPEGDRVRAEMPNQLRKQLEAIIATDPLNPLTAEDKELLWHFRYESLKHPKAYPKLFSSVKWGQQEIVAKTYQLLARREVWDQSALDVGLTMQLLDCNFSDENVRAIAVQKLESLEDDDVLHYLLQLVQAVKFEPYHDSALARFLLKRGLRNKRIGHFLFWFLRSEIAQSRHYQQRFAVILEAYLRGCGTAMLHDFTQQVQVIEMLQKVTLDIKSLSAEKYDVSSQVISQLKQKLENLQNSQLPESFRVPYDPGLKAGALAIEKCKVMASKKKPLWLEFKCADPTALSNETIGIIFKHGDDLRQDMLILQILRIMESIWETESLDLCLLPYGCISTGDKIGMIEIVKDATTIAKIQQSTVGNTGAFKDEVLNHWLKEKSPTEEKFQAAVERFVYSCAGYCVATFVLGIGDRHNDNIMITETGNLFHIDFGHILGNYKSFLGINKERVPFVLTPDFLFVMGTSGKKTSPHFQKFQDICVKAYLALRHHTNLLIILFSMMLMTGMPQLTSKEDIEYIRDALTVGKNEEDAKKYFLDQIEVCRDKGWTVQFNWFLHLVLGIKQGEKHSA
Chain of PIK3CG (human) (P48736 whole entry, looked up): as above
Chain of PIK3CA (human) (P42336 whole entry, looked up): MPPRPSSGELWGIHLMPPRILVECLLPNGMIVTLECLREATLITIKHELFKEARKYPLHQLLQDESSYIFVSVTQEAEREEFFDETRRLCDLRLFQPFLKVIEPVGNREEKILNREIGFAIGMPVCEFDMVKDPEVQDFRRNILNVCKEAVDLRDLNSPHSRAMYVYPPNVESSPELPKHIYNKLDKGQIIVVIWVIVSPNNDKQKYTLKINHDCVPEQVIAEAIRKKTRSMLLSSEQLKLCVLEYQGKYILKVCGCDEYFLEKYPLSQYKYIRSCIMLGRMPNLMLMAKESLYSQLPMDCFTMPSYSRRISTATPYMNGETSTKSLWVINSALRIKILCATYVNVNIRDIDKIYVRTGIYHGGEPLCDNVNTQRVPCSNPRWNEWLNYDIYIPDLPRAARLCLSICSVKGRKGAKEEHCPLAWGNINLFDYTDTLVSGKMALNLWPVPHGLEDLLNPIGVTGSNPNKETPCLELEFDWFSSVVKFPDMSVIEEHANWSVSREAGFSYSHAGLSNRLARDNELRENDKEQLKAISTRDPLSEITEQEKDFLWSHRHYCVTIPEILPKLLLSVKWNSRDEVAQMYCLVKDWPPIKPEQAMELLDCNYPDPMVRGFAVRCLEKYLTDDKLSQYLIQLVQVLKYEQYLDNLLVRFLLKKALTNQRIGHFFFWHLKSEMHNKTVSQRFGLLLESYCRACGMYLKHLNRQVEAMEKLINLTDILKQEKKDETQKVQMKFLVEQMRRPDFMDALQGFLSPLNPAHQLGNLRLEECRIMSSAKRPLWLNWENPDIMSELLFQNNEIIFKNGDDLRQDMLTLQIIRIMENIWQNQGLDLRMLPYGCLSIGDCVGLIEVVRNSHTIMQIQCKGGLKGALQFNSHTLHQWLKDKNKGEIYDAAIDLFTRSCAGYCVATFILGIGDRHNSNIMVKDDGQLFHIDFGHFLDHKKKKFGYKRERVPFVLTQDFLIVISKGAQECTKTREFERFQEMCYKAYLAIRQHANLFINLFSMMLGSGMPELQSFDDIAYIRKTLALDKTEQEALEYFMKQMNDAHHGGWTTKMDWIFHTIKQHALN

Regarding `C=CC(=O)N1CCC[C@@H]1C(=O)Nc1ccc2ncnc(Nc3ccc(OCc4ccccn4)c(Cl)c3)c2c1`, the IC50 (commonly the concentration that gives 50% inhibition) against EGFR (human) [1] is 567 nM.

At EGFR (Hamster), `O=C(O)c1cc(N=Cc2ccccc2O)ccc1O` registered an IC50 of over 100000 nM.

For the compound `Fc1ccc(-c2ncn(CCCN3CCOCC3)c2-c2ccccn2)cc1`, the IC50 at MAPK14 amounted to 64600 nM.

In the case of `Fc1cc(Nc2nccc(-c3sc(N4CCCC4)nc3-c3cccc(Cl)c3)n2)ccc1OCCN1CCCC1`, the IC50 against EGFR (human) [2] lay in the range of 100 to 1000 nM.

Compound `CC(C)[C@H]1C(=O)N[C@H](CO)Cc2c[nH]c3c(CCNC(=O)c4ccc(N=[N+]=[N-])cc4)ccc(c23)N1C` showed an ID50 at EGFR (mouse) of 1320 nM.

Compound `C=CC(=O)N1CCC[C@H](C(=O)Nc2ccc3ncnc(Nc4ccc(OCc5ccccn5)c(Cl)c4)c3c2)C1` registered an IC50 on EGFR (human) [1] of 286 nM.

Take `COc1ccc2c(c1)c(/C=C1\Oc3cc(O)ccc3C1=O)c1n2CCNC1`: the IC50 with PIK3CG;PIK3CA (human) came out at 1510 nM. That is a single-digit micromolar value.

With `COc1ccc2c(c1)c(/C=C1\Oc3cc(O)cc(O)c3C1=O)c1n2CCOC1=O`, the IC50 in the test with PIK3CG;PIK3CA (human) is 5630 nM.

On EGFR (human) [1], `C=CC(=O)N1CC(C(=O)Nc2ccc3ncnc(Nc4ccc(OCc5ccccn5)c(Cl)c4)c3c2)C1` returned an IC50 of 1400 nM.

In the case of `C=CCN(/C=C1/C(=O)O[C@H](COC)[C@@]2(C)C1=C(O)C(=O)C1=C2[C@H](OC(C)=O)C[C@]2(C)C(=O)CC[C@H]12)CC=C`, the IC50 at PIK3CA (human) was 39 nM; at PIK3CG (human) [3] it was 198 nM; against PIK3CD (Human) [4] it was 124 nM; on PIK3CB (Human) [5], 88 nM.

On to `CC[C@H](Nc1nc(NCc2cnc(C)cc2C)c2ncn(C(C)C)c2n1)[C@@H](C)O`, for which, at CDK2 (human) [6], the IC50 is 90 nM and 40 nM.

With `C[C@H](Nc1ncnc2ccc(Cl)nc12)c1nc2c(F)ccc(Cl)c2c(=O)n1N1CCNCC1`, the IC50 on PIK3CB (Human) [7] is 8 nM; against PIK3CD (Human) [8], 3 nM; against PIK3CG (human) [9] it was 3100 nM.

`COc1ccc2c(c1)c(/C=C1\Oc3cc(O)cc(O)c3C1=O)c1n2CCN(C)C1=O` gave a 50% inhibitory concentration (IC50) in the test with PIK3CG;PIK3CA (human) of 5050 nM.

The compound `CC[C@H](Nc1nc(NCc2ccc(C)nc2)c2ncn(C(C)C)c2n1)[C@@H](C)O` gave an IC50 on CDK2 (human) [6] of 3250 nM.

Regarding `CC[C@@](C)(CCCC(C)(C)SCCNC(=O)c1ccc(N=[N+]=[N-])cc1)c1ccc2c3c(c[nH]c13)C[C@@H](CO)NC(=O)[C@H](C(C)C)N2C`, the ID50 at EGFR (mouse) worked out at 4.4 nM.

On CDK2 (human) [6], `CC(C)n1cnc2c(NCc3cccnc3)nc(NCC(O)(C(F)(F)F)C(F)(F)F)nc21` gave an IC50 of 949 nM. This lies in the sub-micromolar range.

Regarding `CCC(Nc1nc(NCc2ccc(C(F)(F)F)nc2)c2ncn(C(C)C)c2n1)C(O)C(F)(F)F` (stereo not drawn), the IC50 against CDK2 (human) [6] turned out to be 368 nM. This IC50 lies about 2.6-fold lower than the previous one.

As for `C=CC(=O)N1CC[C@H](C(=O)Nc2ccc3ncnc(Nc4ccc(OCc5ccccn5)c(Cl)c4)c3c2)C1`, the IC50 against EGFR (human) [1] stood at 350 nM.

As to `C[C@H](Nc1ncnc(N)c1C#N)c1nc2cccc(Cl)c2nc1-c1ccccc1S(C)(=O)=O`, the IC50 against PIK3CB (Human) [10] (mda-468) and against PIK3CB (Human) [10] (mda-mb-468) was over 10000 nM throughout.

In the case of `Cc1ccc(-n2nc(C(C)(C)C)cc2NC(=O)Nc2cc(C)c(OCCN3CCOCC3)c3ccccc23)cc1`, the equilibrium dissociation constant (Kd) (in general, the free concentration of one partner at which half of the binding sites on the other are occupied at equilibrium, for simple one-to-one binding) at MAPK14 amounted to 14 nM. This counts as double-digit nanomolar.

Regarding `COc1ccc2c(c1)c(/C=C1\Oc3cc(O)cc(O)c3C1=O)c1n2CCNC1`, the IC50 in the test with PIK3CG;PIK3CA (human) is 2190 nM.

In turn, `C[C@H](Nc1ncnc(N)c1C#N)c1nc2cccc(C#N)c2nc1-c1ccccc1S(C)(=O)=O` had an IC50 at PIK3CB (Human) [10] (mda-468) of over 10000 nM.

`C[C@H](Nc1ncnc(N)c1C#N)c1cc2ccc(F)cc2nc1-c1cccc(F)c1` gave an IC50 at PIK3CB (Human) [10] (mda-468) of 3800 nM.

On EGFR (mouse), `CCCCC[C@H](Cc1ccc2c3c(c[nH]c13)C[C@@H](CO)NC(=O)[C@H](C(C)C)N2C)NC(=O)c1ccc(N=[N+]=[N-])cc1` registered an ID50 of 89 nM.

With `Nc1ccccc1Nc1ccc2c(c1)OCc1ccccc1C2=O`, the IC50 on MAPK14 was found to be 303 nM.

For the compound `CCN(CC)c1ncc2c(n1)-c1sc(NC(=O)N3CCC[C@@]3(Cc3ccccc3)C(N)=O)nc1CC2`, the IC50 was 45 nM at PIK3CA (human), 1590 nM against PIK3CG (human) [3], 740 nM against PIK3CD (Human) [4] and 127 nM against PIK3CB (Human) [5].

Compound `COc1cc(-c2nc(N3CCCC3)sc2-c2ccnc(Nc3ccc(OCCN4CCCC4)c(F)c3)n2)ccc1Cl` yielded an IC50 against EGFR (human) [2] of 100 to 1000 nM.

Regarding `O=[N+]([O-])c1cccc(Nc2ncnc3sc4c(c23)CCCC4)c1`, at EGFR (human) [11], the IC50 came out at 2.59 nM.

In the case of `Cc1nc2cnc3ccc(C#Cc4cccnc4)cc3c2n1-c1ccc(C(C)(C)C#N)cc1`, the IC50 against PIK3CD (Human) [8] turned out to be 34 nM; on PIK3CG (human) [9] it was 112 nM; at PIK3CA (human), 56 nM; against PIK3CG (human) [3] it was 117 nM; against PIK3CD (Human) [4] it was 35 nM; against PIK3CB (Human) [5], 446 nM.

For the compound `CC[C@H](Nc1nc(NCc2cccnc2)c2ncn(C(C)C)c2n1)C(C)(C)O`, the figures for the IC50 against CDK2 (human) [12] and against CDK2 (human) [6] were 70 nM and 200 nM, respectively.

The compound `CCNc1nc(-c2cccc(Cl)c2)c(-c2ccnc(Nc3ccc(OCCN(C)C)c(Cl)c3)n2)s1` came in with an IC50 against EGFR (human) [2] of under 100 nM.

As for `CCNc1nc(-c2cccc(OC)c2)c(-c2ccnc(Nc3ccc(OCCN4CCCC4)c(F)c3)n2)s1`, the IC50 on EGFR (human) [2] was under 100 nM.

`Oc1cccc(Nc2ncnc3sc4c(c23)CCCC4)c1` returned an IC50 at EGFR (human) [11] of 7.89 nM.
